“Also recorded” adds a separate entry of the source.
Assays:
[1] = Acute toxicity by oral administration (LD50, MTD); assay type: in vivo; conditions: in vivo, mice and rats
Experimental: (§1) On the other hand, similar doses as related to oral administration are about 100 mg/kg.
(§2) The MTD-values by oral administration are even lower i.e., by 53-66% than the sharp lethal dose.

[2] = tested on: mice and rats; test: Acute toxicity by oral administration (LD50, MTD); assay type: in vivo
Experimental: as §1, §2

[3] = tested on: rats; test: Acute toxicity i.v. in rats (LD50, MTD); assay type: in vivo
[4] = Acute toxicity i.v. in rats (LD50, MTD); assay type: in vivo; conditions: rat, in vivo, iv, on average
[5] = Local irritation by aqueous solution; assay type: in vivo
[6] = tested on: muscular coat of the small intestine; test: In vitro action on muscular coat of small intestine, rat; conditions: 10^-5 to 5×10^-5, rat
[7] = tested on: central nervous system; assay type: in vivo
From the text: The preparation C-829 exerted an effect on the principal functions of the central nervous system.

[8] = tested on: liver; design: species or system rabbits and rats; conditions: in vivo
Experimental: (§3) The extended toxicity studies were carried out for a three-month period in rabbits and rats. Doses of from 1/100 to 1/40 LD50 were administered in the case of rabbits, and of from 1/150 to 1/50 LD50 in the case of rats. It should be noted that the highest doses were also the maximum tolerance doses during 12 weeks.
By prolonged exposition, the influence of the preparation C-829 on the functions of the parenchymateous organs (liver, kidneys) was investigated. […] Only the thymol turbidity test resulted as a positive one, using the highest dosage of the preparation. But it should be kept in mind, that this test is not too exact.

[9] = tested on: kidneys; design: species or system rabbits and rats; conditions: in vivo
Experimental: as §3

[10] = tested on: Crocker Sarcoma (Sa-180); test: Inhibition of growth of Crocker Sarcoma (Sa-180) in mice; assay type: in vivo; conditions: 33 determinations in ten series, different doses
Experimental: The inhibition of growth of Crocker Sarcoma (Sa-180) in mice.
For these experiments mice, three months old and about 25 g in weight were used. Each of them was inoculated with a section of sarcoma (Sa-180 and then they were divided in groups: one of control -- 10 mice, and two to four groups of the "being under treatment"-mice (7 mice each).
The compound investigated in corresponding doses were administered intraperitoneally in appropriate doses, prior to which a maximum tolerance dose was determined.
As a criterion for evaluation of the anti-neoplastic activity of the compounds investigated, the percent difference of the mean weights of tumours isolated from control mice, and the "treated" mice was used, taking into consideration the toxic effects. As active compounds were those which have inhibited, by at least 40%, the growth of the tumours, in at least two tests without any dying of the animals (less than 2 mice), or any mean losses of the weight greater than 4 g.
The investigations in vivo of several compounds were carried out several times, e.g., for the preparation labeled code number C-829, that is for 1-nitro-9-(2-dimethylamino-1-methylethylamino)-acridine dihydrochloride. […] In doses of 0.05 to 0.2 mg/kg the percent of inhibition was 17 to 73%, correspondingly.

[11] = Acute toxicity i.v. in mice (LD50, MTD); assay type: in vivo; conditions: mouse, in vivo, iv, on average
[12] = tested on: mice; test: Acute toxicity i.v. in mice (LD50, MTD); assay type: in vivo
[13] = Acute toxicity, signs and comparison with other acridine derivatives; assay type: in vivo
Experimental: as §1, §2

[14] = tested on: lymphatic system; test: Extended toxicity: lymphatic system; assay type: in vivo, rabbits and rats; conditions: three-month study
Experimental: as §3

[15] = tested on: reproductory functions; test: Influence on reproductory functions; assay type: in vivo
[16] = tested on: rabbits; test: Extended three-month toxicity study in rabbits; assay type: in vivo; conditions: doses 1/100 to 1/40 LD50
Experimental: as §3

[17] = tested on: circulatory system; test: Circulatory and electrocardiographic effects; assay type: in vivo
[18] = tested on: peripheral blood; test: Extended toxicity: peripheral blood and clotting; assay type: in vivo, rabbits and rats
Experimental: as §3

[19] = tested on: respiratory system; test: Influence on the respiratory system; assay type: in vivo
From the text: The influence exerted by the preparation on the respiratory system is of two-phases.

[20] = tested on: rats; test: Extended three-month toxicity study in rats; assay type: in vivo; conditions: doses 1/150 to 1/50 LD50
Experimental: as §3

[21] = tested on: muscular coat of the small intestine; test: In vitro action on muscular coat of small intestine, guinea-pig; conditions: 10^-5 to 5×10^-5, guinea-pig
[22] = tested on: circulatory system; test: Circulatory action in atropinized animals; assay type: in vivo; conditions: atropinized rabbits
[23] = tested on: smooth muscle in the small intestine and the urinary bladder; test: Action on smooth muscle of small intestine and urinary bladder; assay type: in vivo; conditions: 10 mg/kg, rabbit

For CC(CN(C)C)Nc1c2ccccc2nc2cccc([N+](=O)[O-])c12.Cl.Cl (stereo not drawn) [Example C-829, 1-nitro-9-(2-dimethylamino-1-methylethylamino)-acridine dihydrochloride], the LD50 [1] was roughly 100 mg/kg, the “MTD by oral administration, lower than the sharp lethal dose by” value [2] was 53-66% and the “maximum tolerance dose (MTD), lower than LD50 by” value [3] was “about 30%”. For the same molecule, the LD50 [4] was 13 mg/kg, the “local action of aqueous solution” value ([5]; 0.05-1% aqueous solution) was “locally irritating action” and the “local action at higher concentrations” value ([5]; higher concentrations, aqueous solution) was “narcotizing effect”. The “local irritation with phosphate buffer as solvent” value ([5]; phosphate buffer solution of Sorensen at pH 7) was “partially alleviated”, the “action on muscular coat of the small intestine” value [6] was “rather a contracting (enterospasmatic) one” and the “interaction with soporific (hypnotic) drugs” value ([7]; 10 LD50 (so in the source)) was “clear depressive component value”. The “action in the presence of cardiazol and strychnine” value ([7]; in vivo) was “complex and non-characteristic”, the “influence on spontaneous motility” value ([7]; in vivo) was “devoid, indeed, of an influence on the spontaneous motility of animals” and the “liver function (transaminase AlAt, AspAt, acidic and alkaline phosphatase in serum)” value [8] was “It could not be determined, that it could influence the functions of the liver”. The liver histology [8] was “some weak (hardly perceptible) traits of the parenchymatous degeneration of glandular cells”, the thymol turbidity test [8] was “positive” and the “endogenous creatinine level in the serum” value [9] was “remained unchanged”. For the same molecule, the glomerular filterability [9] was “maintained within standard limits”, the kidney histology [9] was “some focal parenchymatous degeneration character in renal tubules” and the “urine: pathological components and specific weight” value [9] was “neither induced any appearance of pathological components in urine, nor changed its specific weight”. The “dose dependence of inhibition of Sa-180 growth” value [10] was “dependent upon the dose”, the LD50 [11] was 21 mg/kg and the “maximum tolerance dose (MTD), lower than LD50 by” value [12] was roughly 20%. The “period over which animals die” value ([13]; in vivo) was “up to 10 days”, the “relative toxicity among the derivatives of acridine” value ([13]; in vivo) was “relatively lower toxicity” and the “toxic signs at death” value ([13]; regardless of the way of administration, dihydrochloride) was “intensified symptoms of the alimentary canal; also recorded: A sharp intestinal obstruction of the paralytic type occurs”. The “lymphatic system: proliferous centers and small lymphocytes” value [14] was “The structure of the proliferous centers became imperceptible, and also the amount of small lymphocytes diminished”, the “lymphatic system: rete elements” value [14] was “hypertrophy of rete elements” and the “alterations in the lymphatic system” value ([14]; especially mesenteric lymph nodes) was “very discretely marked involutional alterations”. The effect on testicles ([15]; 1/50 LD50, 14 days) was “some retrograde microscopical metaplasia within the germinal epithelium of spermatic tubules of the testicles, leading to a disorder in the spermatogenesis”, the “effect on females fructified and newborn animals per brood” value ([15]; 1/50 LD50, 14 days prior to connexion) was “reduced the amount of fructified females, as well as diminished the number of newborn animals in broods” and the effect on ovary ([15]; 14 days) was “no observed pathological alteration in the ovary”. For the same molecule, the “development of the foetus and newborn animals” value ([15]; 14 days prior to connexion) was “no macroscopic disorders of development of the foetus and newborn animals”, the “maximum tolerance dose during 12 weeks (highest dose)” value [16] was 1/40 and the “ECG intervals: PQ and QRS sections” value ([17]; higher doses, intravenously) was “prolonging the PQ section and in widening the QRS section”. For the same molecule, the “blood pressure and conductivity disturbances” value ([17]; higher doses, intravenously) was “intensified hypotension, induced some disturbances characteristic enough of the acridine compounds both in the atrio-ventricular and intraventricular conductivity”, the electrocardiographic changes ([17]; initially, intravenously, doses increasing to 5 mg/kg) was “initially was not accompanied by any electrocardiographic changes” and the “effect on blood pressure” value ([17]; intravenously, doses increasing to 5 mg/kg, rabbits, cats) was “transient hypotension effect”. For the same molecule, the “conductivity disturbance at lethal doses” value ([17]; lethal doses) was “total auriculoventricular dissociation”, the “character of circulatory effect” value ([17]; lower and moderate doses) was “transient character” and the “action on muscular coat of blood-vessels” value ([17]; rabbit, in vivo) was “tonic action on the muscular coat of the blood-vessels”. For the same molecule, the “influence on the thrombocyte system” value ([18]; preliminary investigations) was “did not show the influence of the preparation on the thrombocyte system”, the “picture of the peripheral blood (leukocytic, erythrocytic, hemoglobin levels)” value ([18]; three-month study) was “did not change the picture of the peripheral blood” and the “blood clotting (coagulation) time” value ([18]; three-month study, not correlated with dosage) was “prolonged the blood clotting (coagulation) time”. The “respiratory effect, initial phase” value ([19]; at the appearance of hypotension) was “instinctive respiratory excitation”, the “respiratory effect, massive doses” value ([19]; massive doses) was “depressive centrally for respiratory action, leading terminally to an apnoea” and the “maximum tolerance dose during 12 weeks (highest dose)” value [20] was 1/50. The “action on muscular coat of the small intestine” value [21] was “rather a contracting (enterospasmatic) one”, the “change of circulatory action by atropinization” value [22] was “does not change the action of the preparation on the circulatory system” and the “action on smooth muscle” value [23] was “spasmolytic”.

Reference: patent US4150231A, “1-Nitro-9-dialkylaminoisoalkylaminoacridines or their salts” (priority 1976, dated 1979)
